Reference: patent US20090005338A1, “Carbonyl-substituted titanocenes” (Charite - Universitatsmedizin Berlin, priority 2006, published 2009)

What was measured:
[1] = system: primary lymphoblasts from an ALL patient; assay: Apoptosis induction in primary lymphoblasts ex vivo (DNA fragmentation, propidium iodide, FACS); format: cell-based, human; details: 60 h, concentration in the range of LD50 in the BLAB cell line; for apoptosis induction in primary lymphoblasts (in words): therapy-resistant leukemia cells
Protocol: The concentrations employed were selected to always be within the respective range of LD50 when the BLAB cell line was used. Thereafter, the cells were incubated at 37° C. and 5% CO2 for 60 hours, followed by staining with propidium iodide and quantifying by flow cytometry in FACS (Prokop et al., 2003).
The incubation was effected at 37° C. and 5% CO2 for 60 h. Apoptosis induction was measured as DNA fragmentation by flow cytometry after propidium iodide staining.

[2] = system: BJAB cells (Burkitt lymphoma cell line); assay: Apoptosis induction detected as DNA fragmentation by flow cytometry (FACS) after propidium iodide staining; format: cell-based; details: 72 h
Protocol: Within the scope of apoptotic cell death, the cell is dismantled proteolytically by caspases from inside. Thereupon, the DNA is also fragmented, inter alia. This DNA fragmentation, which is specific for apoptosis, is considered a proof of apoptosis induction and is detected by means of flow cytometry on the single cell level.
BJAB cells (Burkitt lymphoma cell line) in different concentrations were treated with a titanocene derivative and incubated at 37° C. and 5% CO2 for 72 hours. A control (untreated cell suspension) and a solvent control with dimethyl sulfoxide (DMSO) were continuously included. After incubation for 72 hours, apoptosis induction was detected by flow cytometry (FACS) through DNA fragmentation with propidium iodide (Eβmann, 2000).
FIG. 1: BLAB mock cells (1×10^5/ml) were treated with increasing concentrations of the titanocene derivative 4-[1-(dichlorotitanocenyl)]-4-methylbutyric acid n-octylamide (2) and incubated at 37° C. and 5% CO2 for 72 h. After propidium iodide staining, the DNA fragments were detected by flow cytometry (FACS analysis). Ko (untreated cell suspension) and DMSO (solvent control) were included with equivalent treatment.
Since the activity of the cytostatic agents develops in the malignant cells through a specific apoptosis induction, it is reasonable to measure this effect and thus the selectivity of our compounds rather than stating, as usual, the non-specific cytotoxicity described by the LC50 values. Therefore, for examining the structure-effect relationship of our titanocenes, we have established the concentration (AC50) at which a specific apoptosis is induced in […] of the lymphoma cells.
For determining this value, lymphoma cells (10^5/ml BJAB cells) were incubated in different concentrations with (21) at 5% CO2 and 37° C. for 72 h. After staining with propidium iodide, the DNA fragmentation was detected by flow cytometry by means of a FACS analysis.

[3] = system: human lymphoma cells; details: SCID mice, microcrystalline suspension p.o., 5×50 mg/kg body weight per week over 2 weeks from day 14; Mann-Whitney U test p<0.05
Protocol: The mean values of the tumor volumes (*=significance) with standard deviations as a function of therapy duration (application of (2) from day 14 with 5×50 mg/kg body weight per week p.o. over 2 weeks) are shown.

[4] = system: BJAB cells; details: 48 h, concentration-dependent
Protocol: After treatment of the cells with different concentrations of a titanocene including a zero control and a solvent control (DMSO), the cells are incubated at 37° C. and 5% CO2 for 48 hours.
The incubation was effected at 37° C. and 5% CO2 for 48 h including zero and solvent controls, followed by staining the cells with the mitochondria-specific stain JC-1 and detection of the color change and thus the change of the mitochondrial membrane potential by flow cytometry.

[5] = SCID mice, oral therapy 50 mg/kg body weight
[6] = system: BLAB cells; details: 3 h incubation, highest concentration
Protocol: A non-specific cytotoxic effect of the titanocenes via necrosis could be excluded by measuring the extracellular lactate dehydrogenase (LDH) release by ELISA reader detection after incubation for 3 h.

[7] = system: BJAB cells; details: 75 μM, 72 h
[8] = system: lymphoma cells (BLAB); details: various concentrations, 72 h
Protocol: Lymphoma cells (BLAB) were treated with the carbonyl-substituted titanocene (2), the conventional nucleoside analogue cytarabin (AraC), which is used in the therapy of malignant diseases, and with the combination of (2) and AraC in various concentrations for 72 h. The apoptosis induction was examined by flow cytometry by measuring the DNA fragmentation after staining the cells with propidium iodide. The measured values of three independent examinations are shown, wherein the error bars show the standard deviations from the mean.

## COc1cccc2c1C(=O)c1c(O)c3c(c(O)c1C2=O)C[C@@](O)(C(=O)CO)C[C@@H]3O[C@H]1C[C@H](N)[C@@H](O)[C@H](C)O1 [epirubicin]
[1]
  apoptosis induction in primary lymphoblasts (in words): did not induce any significant apoptosis

## COc1cccc2c1C(=O)c1c(O)c3c(c(O)c1C2=O)C[C@@](O)(C(C)=O)C[C@@H]3O[C@H]1C[C@H](N)[C@H](O)[C@H](C)O1 [daunorubicin]
[1]
  apoptosis induction in primary lymphoblasts (in words): did not induce any significant apoptosis

## Nc1ccn([C@@H]2O[C@H](CO)[C@@H](O)[C@@H]2O)c(=O)n1 [cytarabin]
[1]
  apoptosis induction in primary lymphoblasts (in words): did not induce any significant apoptosis

## CC(=O)[C@]1(O)Cc2c(O)c3c(c(O)c2[C@@H](O[C@H]2C[C@H](N)[C@H](O)[C@H](C)O2)C1)C(=O)c1ccccc1C3=O [idarubicin]
[1]
  apoptosis induction in primary lymphoblasts (in words): did not induce any significant apoptosis

## COc1cccc2c1C(=O)c1c(O)c3c(c(O)c1C2=O)C[C@@](O)(C(=O)CO)C[C@@H]3O[C@H]1C[C@H](N)[C@H](O)[C@H](C)O1 [doxorubicin]
[1]
  apoptosis induction in primary lymphoblasts (in words): did not induce any significant apoptosis

## 4-[1-(dichlorotitanocenyl)]-4-methylbutyric acid n-octylamide [Complex (2)]
[2]; 100 μM
  apoptosis induced, proportion of BJAB cells: about 840%
[2]; BJAB cell line, 37° C., 5% CO2, read-out: AC50 (concentration at which a specific apoptosis is induced in 500% of the lymphoma cells)
  AC50: 55 µM
[2]; BJAB, highest effect over the concentrations tested
  concentration-dependent apoptosis induction (proportion of apoptotic cells in the total population): up to 80%
[1]
  apoptosis induction, proportion of leukemia cells ex vivo: about 60%
[3]
  growth of human lymphoma cells (tumor volume): significantly inhibited
[4]
  proportion of cells with changed mitochondrial membrane potential (ΔΨm): more than 70%
[5]
  tolerability: good tolerability
[6]
  viability of the cell population (LDH release): above 94%
[7]
  cell morphology: significant swelling and “blebbing” that is characteristic of apoptosis
[8]
  effect of the combination with AraC on apoptosis induction: significant synergistic effect

## CC[C@]1(O)C[C@H]2CN(CCc3c([nH]c4ccccc34)[C@@](C(=O)OC)(c3cc4c(cc3OC)N(C=O)[C@H]3[C@@](O)(C(=O)OC)[C@H](OC(C)=O)[C@]5(CC)C=CCN6CC[C@]43[C@@H]65)C2)C1 [vincristin]
[1]
  apoptosis induction in primary lymphoblasts (in words): did not induce any significant apoptosis
